In patent US20250304811A1, “Ink Jet Ink Composition And Recording Method” (SEIKO EPSON CORPORATION, priority 2024, published 2025):

Assay: Solubility in water
Conditions: 20° C., 100 g of water

COCCOC [ethylene glycol dimethyl ether]
miscibility with water: completely miscible with water
